Reference: US8183243B2, “Melanocortin receptor agonists” (LG Life Sciences Ltd., priority 2008, dated 2012)
Where two headings read alike, the source gives them in different places.

Molecular target: T1, MC4R (Homo sapiens, UniProt P32245)
T1 construct: expressed in transfected cells; host or cells: HEK (Human Embryonic Kidney) permanent expression cell line HEK MC4R-Luc, co-expressing CRE-luciferase
Assay: MCR agonistic activity (luciferase assay / cAMP accumulation assay) on MC4R
Assay type: cell-based
Conditions: HEK cell lines expressing MC4R, not said which
Procedure: Physiological activity of the compounds of the present invention was assessed by measuring agonistic activity as well as binding activity for melanocortin receptors (MCR) according to methods A and B explained as follows.
As one of the methods to measure MCR agonistic activity of the compound according to the present invention, the expression level of a marker gene (for example, luciferase) which increases proportionally according to the increase of cAMP content in the cell, was measured.
First, permanent expression HEK (Human Embryonic Kidney) cell lines (HEK MC1R-Luc, MC3R-Luc, MC4R-Luc or MC5R-Luc) expressing the MCR gene of each subtype together with luciferase gene (CRE-LUC) under the control of CRE (cAMP Response Element) were constructed. The above cell lines were incubated in an incubator with 6% CO2 atmosphere at 37° C. using selection medium, DMEM(Dulbecco's Modified Eagles Medium) containing 10% heat-inactivated fetal bovine serum (Gibco/BRL), 100 unit/ml, penicillin (Gibco/BRL), 100 unit/ml streptomycin (Gibco/BRL), and 200 μg/ml geneticin (G418) (Gibco/BRL). When the cell covered 70% of total surface of the culture dish with 100 mm diameter, the culture dish was rinsed one time with 10 ml Phosphate Buffered Saline(PBS) free of Ca^++ and Mg^++, and then 3 ml PBS solution containing 0.05% trypsin and 0.53 mM EDTA was added thereto. After the trypsin/EDTA solution was removed, the cell lines were incubated in an thermostatic incubator for 1 minute at 37° C., and resuspended in 10 ml selection medium and centrifuged for 5 minutes at 1500 rpm. The supernatant was discarded and the settled cells were resuspended in 5 ml selection medium free of Phenol Red. The resulting cell-suspension was plated onto each well of 96-well culture plates for Luminometer(Costar) with a concentration of 5×10^4 cell in 100 μl culture medium for each well and incubated in the incubator with 6% CO2 atmosphere at 37° C. for 18 hours. With MCR agonists (Example compounds) diluted stepwise using the above culture medium, the cells were treated under the condition of the final DMSO concentration not exceeding 1%, and incubated for 5 hours in the atmosphere of 6% CO2 at 37° C. Then, 50 μl Bright-Glo (Promega) was added to each well. After allowing the treated cells to be at room temperature for 15 minutes, luminescence was measured for each well by using luminometer (Victor). The level of luminescence induced by the stepwise-diluted agonist was converted to relative % value to those by the treatment of 10 nM NDP-MSH. The EC50 indicates the concentration of each agonist for inducing 50% of maximal luminescence by each agonist and this value was measured by a statistical software (Prizm).
B. cAMP Accumulation Assay
As another method to measure MCR agonistic activity of the compound according to the present invention, an increase of cAMP amount in the cell was measured.
First, permanent expression HEK (Human Embryonic Kidney) cell lines (HEK MC1R-Luc, MC3R-Luc, MC4R-Luc or MCSR-Luc) expressing the MCR gene of each subtype were plated onto each well of 24-well culture plates for Luminometer(Costar) with a concentration of 2×10^5 cell in 1 ml culture medium for each well, and then incubated in an incubator with 6% CO2 atmosphere at 37° C. for 24 hours. The medium was removed from each well followed by rinsing with 0.5 ml cold DMEM one time. With MCR agonists (Example compounds) diluted stepwise using 200 μl DMEM including 500 μM IBMX (isobutylmethylxanthine), the cells were treated under the condition of the final DMSO concentration not exceeding 1%, and incubated for 30 minutes in the atmosphere of 6% CO2 at 37° C. Then, the cAMP amount in each cell was measured using Amersham cAMP assay Kit (TRK432).
More specifically, 14.4 μl of 6M PCA (60%) was added to each well, and allowed to be in ice for 10 minutes, and 200 μl sample was taken from each well and transferred to microcentrifuge tube. […]

[1] = method A (CRE-luciferase) or B (cAMP accumulation), read-out: EC50 value, agonistic activity to MC4R (range per group of Examples)
[2] = specific activities of representative compounds, method A or B, read-out: EC50

T1 sequence (P32245 whole entry, species assumed): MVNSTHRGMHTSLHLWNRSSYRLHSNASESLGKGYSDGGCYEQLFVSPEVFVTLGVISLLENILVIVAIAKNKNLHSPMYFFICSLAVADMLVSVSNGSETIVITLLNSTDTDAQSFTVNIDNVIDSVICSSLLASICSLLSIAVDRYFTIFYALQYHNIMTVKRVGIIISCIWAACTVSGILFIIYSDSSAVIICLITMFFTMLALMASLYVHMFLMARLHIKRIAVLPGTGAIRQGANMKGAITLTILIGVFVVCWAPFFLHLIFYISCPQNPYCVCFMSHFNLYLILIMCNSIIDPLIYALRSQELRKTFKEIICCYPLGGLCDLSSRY

SMILES | EC50 [1] [nM] | EC50 [2] [nM]
CCN1CCN(C(=O)[C@@H]2C[C@H](N(C(=O)[C@@H]3CCCO3)[C@H]3CC[C@@H](C)CC3)CN2C(=O)[C@@H]2CN(C(C)(C)C)C[C@H]2c2ccc(Cl)cc2)CC1 [Example 22, (2S)-N-{(3S,5S)-1-{[(3S,4R)-1-tert-butyl-4-(4-chlorophenyl)pyrrolidin-3-yl]carbonyl}-5-[(4-ethylpiperazin-1-yl)carbonyl]pyrrolidin-3-yl}-N-(cis-4-methylcyclohexyl)tetrahydrofuran-2-carboxamide] | 0.1 to 10 | –
CC(C)N1CCN(C(=O)[C@@H]2C[C@H](N(C(=O)[C@@H]3CCCO3)[C@H]3CC[C@@H](C)CC3)CN2C(=O)[C@@H]2CN(C(C)(C)C)C[C@H]2c2ccc(Cl)cc2)CC1 [Example 23, (2S)-N-{(3S,5S)-1-{[(3S,4R)-1-tert-butyl-4-(4-chlorophenyl)pyrrolidin-3-yl]carbonyl}-5-[(4-isopropylpiperazin-1-yl)carbonyl]pyrrolidin-3-yl}-N-(cis-4-methylcyclohexyl)tetrahydrofuran-2-carboxamide] | 0.1 to 10 | –
CN1CCN(C(=O)[C@@H]2C[C@H](N(C(=O)c3ccoc3)[C@H]3CC[C@@H](C)CC3)CN2C(=O)[C@@H]2CN(C(C)(C)C)C[C@H]2c2ccc(F)cc2F)CC1 [Example 24, N-{(3S,5S)-1-{[(3S,4R)-1-tert-butyl-4-(2,4-difluorophenyl)pyrrolidin-3-yl]carbonyl}-5-[(4-methylpiperazin-1-yl)carbonyl]pyrrolidin-3-yl}-N-(cis-4-methylcyclohexyl)-3-furamide] | 0.1 to 10 | –
CN1CCN(C(=O)[C@@H]2C[C@H](N(C(=O)C(C)(C)C)C3CCC(F)(F)CC3)CN2C(=O)[C@@H]2CN(C(C)(C)C)C[C@H]2c2ccc(Cl)cc2)CC1 [Example 26, N-{(3S,5S)-1-{[(3S,4R)-1-tert-butyl-4-(4-chlorophenyl)pyrrolidine-3-yl]carbonyl}-5-[(4-methylpiperazin-1-yl)carbonyl]pyrrolidin-3-yl}-N-(4,4-difluorocyclohexyl)-2,2-dimethylpropanamide] | 0.1 to 10 | 6
CCN1CCN(C(=O)[C@@H]2C[C@H](N(C(C)=O)C3CCC(F)(F)CC3)CN2C(=O)[C@@H]2CN(C(C)(C)C)C[C@H]2c2ccc(Cl)cc2)CC1 [Example 28, N-{(3S,5S)-1-{[(3S,4R)-1-tert-butyl-4-(4-chlorophenyl)pyrrolidin-3-yl]carbonyl}5-[(4-ethylpiperazin-1-yl)carbonyl]pyrrolidin-3-yl}-N-(4,4-difluorocyclohexyl)acetamide] | 100 to 1000 | –
CC(=O)N(C1CCC(F)(F)CC1)[C@H]1C[C@@H](C(=O)N2CCN(C(C)C)CC2)N(C(=O)[C@@H]2CN(C(C)(C)C)C[C@H]2c2ccc(Cl)cc2)C1 [Example 29, N-{(3S,5S)-1-{[(3S,4R)-1-tert-butyl-4-(4-chlorophenyl)pyrrolidin-3-yl]carbonyl}5-[(4-isopropylpiperazin-1-yl)carbonyl]pyrrolidin-3-yl}-N-(4,4-difluorocyclohexyl)acetamide] | 100 to 1000 | –
CN1CCN(C(=O)[C@@H]2C[C@H](N(C(=O)C(C)(C)C)C3CCC(F)(F)CC3)CN2C(=O)[C@@H]2CN(C(C)(C)C)C[C@H]2c2ccc(F)cc2F)CC1 [Example 30, N-{(3S,5S)-1-{[(3S,4R)-1-tert-butyl-4-(2,4-difluorophenyl)pyrrolidin-3-yl]carbonyl}-5-[(4-methylpiperazin-1-yl)carbonyl]pyrrolidin-3-yl}-N-(4,4-difluorocyclohexyl)-2,2-dimethylpropanamide] | 0.1 to 10 | –

More lines, now with the values ahead:

EC50 [1] [nM] | EC50 [2] [nM] | SMILES
0.1 to 10 | – | CN1CCN(C(=O)[C@@H]2C[C@H](N(C(=O)C(C)(C)CO)C3CCC(C)(C)CC3)CN2C(=O)[C@@H]2CN(C(C)(C)C)C[C@H]2c2ccc(F)cc2F)CC1 [Example 15, N-{(3S,5S)-1-{[(3S,4R)-1-tert-butyl-4-(2,4-difluorophenyl)pyrrolidin-3-yl]carbonyl}-5-[(4-methylpiperazin-1-yl)carbonyl]pyrrolidin-3-yl}-N-(4,4-dimethylcyclohexyl)-3-hydroxy-2,2-dimethylpropanamide]
0.1 to 10 | 0.4 | CN1CCN(C(=O)[C@@H]2C[C@H](N(C(=O)[C@@H]3CCCO3)[C@H]3CC[C@@H](C)CC3)CN2C(=O)[C@@H]2CN(C(C)(C)C)C[C@H]2c2ccc(Cl)cc2)CC1 [Example 16, (2S)-N-{(3S,5S)-1-{[(3S,4R)-1-tert-butyl-4-(4-chlorophenyl)pyrrolidin-3-yl]carbonyl}-5-[(4-methylpiperazin-1-yl)carbonyl]pyrrolidin-3-yl}-N-(cis-4-methylcyclohexyl)tetrahydrofuran-2-carboxamide]
0.1 to 10 | – | CN1CCN(C(=O)[C@@H]2C[C@H](N(C(=O)C(C)(C)C)[C@H]3CC[C@@H](C)CC3)CN2C(=O)[C@@H]2CN(C(C)(C)C)C[C@H]2c2ccc(Cl)cc2)CC1 [Example 17, N-{(3S,5S)-1-{[(3S,4R)-1-tert-butyl-4-(4-chlorophenyl)pyrrolidin-3-yl]carbonyl}5-[(4-methylpiperazin-1-yl)carbonyl]pyrrolidin-3-yl}-2,2-dimethyl-N-(cis-4-methylcyclohexyl)propanamide]
0.1 to 10 | – | CN1CCN(C(=O)[C@@H]2C[C@H](N(C(=O)C(C)(C)C)[C@H]3CC[C@@H](C)CC3)CN2C(=O)[C@@H]2CN(C(C)(C)C)C[C@H]2c2ccc(F)cc2F)CC1 [Example 18, N-{(3S,5S)-1-{[(3S,4R)-1-tert-butyl-4-(2,4-difluorophenyl)pyrrolidin-3-yl]carbonyl}-5-[(4-methylpiperazin-1-yl)carbonyl]pyrrolidin-3-yl}-2,2-dimethyl-N-(cis-4-methylcyclohexyl)propanamide]
0.1 to 10 | – | CN1CCN(C(=O)[C@@H]2C[C@H](N(C(=O)C(C)(C)CO)[C@H]3CC[C@@H](C)CC3)CN2C(=O)[C@@H]2CN(C(C)(C)C)C[C@H]2c2ccc(Cl)cc2)CC1 [Example 19, N-{(3S,5S)-1-{[(3S,4R)-1-tert-butyl-4-(4-chlorophenyl)pyrrolidin-3-yl]carbonyl}-5-[(4-methylpiperazin-1-yl)carbonyl]pyrrolidin-3-yl}-3-hydroxy-2,2-dimethyl-N-(cis-4-methylcyclohexyl)propanamide]
0.1 to 10 | – | CN1CCN(C(=O)[C@@H]2C[C@H](N(C(=O)C(C)(C)CO)[C@H]3CC[C@@H](C)CC3)CN2C(=O)[C@@H]2CN(C(C)(C)C)C[C@H]2c2ccc(F)cc2F)CC1 [Example 20, N-{(3S,5S)-1-{[(3S,4R)-1-tert-butyl-4-(2,4-difluorophenyl)pyrrolidin-3-yl]carbonyl}-5-[(4-methylpiperazin-1-yl)carbonyl]pyrrolidin-3-yl}-3-hydroxy-2,2-dimethyl-N-(cis-4-methylcyclohexyl)propanamide]
0.1 to 10 | – | CN1CCN(C(=O)[C@@H]2C[C@H](N(C(=O)[C@@H]3CCCO3)[C@H]3CC[C@@H](C)CC3)CN2C(=O)[C@@H]2CN(C(C)(C)C)C[C@H]2c2ccc(F)cc2F)CC1 [Example 21, (2S)-N-{(3S,5S)-1-{[(3S,4R)-1-tert-butyl-4-(2,4-difluorophenyl)pyrrolidin-3-yl]carbonyl}-5-[(4-methylpiperazin-1-yl)carbonyl]pyrrolidin-3-yl}-N-(cis-4-methylcyclohexyl)tetrahydrofuran-2-carboxamide]
